How the values were obtained:
[1] = biological target: DPP1 (Homo sapiens (Human), UniProt P53634); assay: DPP1 activity inhibition test on U937 cells; assay type: cell-based; settings: substrate h-Gly-phe-AFC; for inhibition at 0.005 µM: U-937, 5 nM compound; for inhibition at 0.05 µM: U-937, 50 nM compound; for IC50: intracellular enzyme activity
Procedure: After incubation at 37° C. for 1 h, add h-Gly-phe-AFC (10 μL) to each well and start reaction.

[2] = biological target: rhCathepsin C/DPP1 (Homo sapiens (Human), UniProt P53634); assay: Test for inhibition of DPP1 enzyme activity; assay type: biochemical; settings: recombinant human cathepsin C/DPP1; substrate Gly-Arg-AMC
rhCathepsin C/DPP1, sequence (P53634 25-134): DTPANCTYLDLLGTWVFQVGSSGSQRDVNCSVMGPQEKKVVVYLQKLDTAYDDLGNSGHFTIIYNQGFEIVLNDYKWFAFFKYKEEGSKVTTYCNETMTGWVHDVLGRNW
rhCathepsin C/DPP1, sequence (P53634 231-394): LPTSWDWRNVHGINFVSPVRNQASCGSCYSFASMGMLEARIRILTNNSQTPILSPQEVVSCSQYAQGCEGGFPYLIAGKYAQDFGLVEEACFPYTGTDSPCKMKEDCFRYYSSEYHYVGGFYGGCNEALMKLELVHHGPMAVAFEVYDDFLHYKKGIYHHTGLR
rhCathepsin C/DPP1, sequence (P53634 395-463): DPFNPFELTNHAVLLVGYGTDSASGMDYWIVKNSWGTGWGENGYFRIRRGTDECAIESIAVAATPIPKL
Procedure: Recombinant human cathepsin, rhCathepsin C/DPP1, purchased from R&D systems
Gly-Arg-AMC (hydrOCHloride), purchased from Cayman chemical
• 1) Preparation and handling of compounds: Accurately weigh the compound and dissolve it in […] of DMSO to prepare a […] of the bulk, which is further diluted as required. • 2) Screening test: Dilute recombinant human cathepsin rhCathepsin C/DPP1 and recombinant human cathepsin rhCathepsin L with an activating buffer solution, and incubate at 37° C. for 60 min. Add 4 μL of test compound to the white well of the 384-well plate. Add 4 μL of the enzyme mixture after incubation to the white wells. Block the 384-well plate and allow to stand at room temperature for 30 min, and add 8 μL of 2-fold diluted Gly-Arg-AMC (hydrochloride). Block the 384-well plate and allow to stand at room temperature for 2 h. Prepare 4× stop solution and add 4 μL stop solution to white wells. Read fluorescence data on the fluorescence meter Victor Nivo35. • 3) Data analysis:
[…] using Prism Graphpad 8.0.

DPP1, sequence (P53634 25-463): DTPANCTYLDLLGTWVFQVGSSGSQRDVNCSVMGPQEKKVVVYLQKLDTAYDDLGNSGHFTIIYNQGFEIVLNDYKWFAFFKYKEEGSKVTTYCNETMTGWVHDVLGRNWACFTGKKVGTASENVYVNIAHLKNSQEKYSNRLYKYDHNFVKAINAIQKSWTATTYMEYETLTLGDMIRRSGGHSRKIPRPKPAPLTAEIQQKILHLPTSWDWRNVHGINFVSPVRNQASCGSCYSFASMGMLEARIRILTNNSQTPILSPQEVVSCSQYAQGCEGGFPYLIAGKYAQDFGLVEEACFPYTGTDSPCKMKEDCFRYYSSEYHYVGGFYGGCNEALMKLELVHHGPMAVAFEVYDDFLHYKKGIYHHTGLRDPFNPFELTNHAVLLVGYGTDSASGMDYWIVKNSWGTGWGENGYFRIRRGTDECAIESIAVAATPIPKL

Row | SMILES | inhibition at 0.005 µM [1] [%] | inhibition at 0.05 µM [1] [%] | IC50 [1] [µM] | IC50 [2] [µM]
1 | N#C[C@H](Cc1ccc(-c2ccc3oc(=O)n(CF)c3c2)cc1)NC(=O)[C@@H]1CNCCCO1 [Compound D02] | 30 to 75 | 75 to 100 | 0.0057 | 0.0041
2 | N#C[C@H](Cc1ccc(-c2ccc3oc(=O)n(C(F)F)c3c2)cc1)NC(=O)[C@@H]1CNCCCO1 [Compound D04] | 30 to 75 | 75 to 100 | 0.0052 | 0.0039
3 | N#C[C@H](Cc1ccc(-c2ccc3c(c2)CCC3=O)cc1)NC(=O)[C@@H]1CNCCCO1 [Compound D09] | 30 to 75 | 75 to 100 | 0.01 | 0.0054
4 | CN1CC2(C1)OC(=O)c1ccc(-c3ccc(C[C@@H](C#N)NC(=O)[C@@H]4CNCCCO4)cc3)cc12 [Compound D19] | 30 to 75 | 75 to 100 | 0.041 | 0.0035
5 | CN1CC2(C1)OCc1ccc(-c3ccc(C[C@@H](C#N)NC(=O)[C@@H]4CNCCCO4)cc3)cc12 [Compound D20] | 30 to 75 | 75 to 100 | 0.035 | 0.0036
6 | N#C[C@H](Cc1ccc(-c2ccc3c(c2)C2(COC2)OC3=O)cc1)NC(=O)[C@@H]1CNCCCO1 [Compound D21] | 30 to 75 | 75 to 100 | 0.029 | 0.008
7 | N#C[C@H](Cc1ccc(-c2ccc3c(c2)C2(CCN(C4COC4)CC2)OC3)cc1)NC(=O)[C@@H]1CNCCCO1 [Compound D26] | 30 to 75 | 75 to 100 | 0.016 | 0.0031
8 | COCC1OC(=O)c2ccc(-c3ccc(C[C@@H](C#N)NC(=O)[C@@H]4CNCCCO4)c(F)c3)cc21 (stereo partly shown) [Compound D77] | < 30 | 75 to 100 |  | 
9 | N#C[C@H](Cc1ccc(-c2cc3c(cc2F)C(=O)OC3)cc1F)NC(=O)[C@@H]1CNCCCO1 [Compound D79] | < 30 | < 30 |  | 
10 | CS(=O)(=O)Cn1c(=O)oc2ccc(-c3ccc(C[C@@H](C#N)NC(=O)[C@@H]4CNCCCO4)c(F)c3)cc21 [Compound D80] | < 30 | < 30 |  | 
11 | N#C[C@H](Cc1ccc(-c2ccc3c(c2)N2CC(=O)N=C2O3)cc1F)NC(=O)[C@@H]1CNCCCO1 [Compound D81] | < 30 | 30 to 75 |  | 
12 | N#C[C@H](Cc1ccc(-c2ccc3oc(=O)n(C4CCN(C5COC5)CC4)c3c2)cc1F)NC(=O)[C@@H]1CNCCCO1 [Compound D82] | < 30 | < 30 |  | 
13 | CN1CCC(n2c(=O)oc3ccc(-c4ccc(C[C@@H](C#N)NC(=O)[C@@H]5CNCCCO5)c(F)c4)cc32)CC1 [Compound D83] | < 30 | < 30 |  | 
14 | CN1CCC2(C1)OCc1ccc(-c3ccc(C[C@@H](C#N)NC(=O)[C@@H]4CNCCCO4)c(F)c3)cc12 (stereo partly shown) [Compound D86] | < 30 | 75 to 100 |  | 
15 | N#C[C@H](Cc1ccc(-c2ccc3c(c2)C2(CCN(C4COC4)C2)OC3)cc1F)NC(=O)[C@@H]1CNCCCO1 (stereo partly shown) [Compound D87] | < 30 | 75 to 100 | 0.0128 | 
16 | CN1CCC2(C1)OC(=O)c1ccc(-c3ccc(C[C@@H](C#N)NC(=O)[C@@H]4CNCCCO4)c(F)c3)cc12 (stereo partly shown) [Compound D88] | < 30 | 75 to 100 |  | 
17 | N#C[C@H](Cc1ccc(-c2ccc3c(c2)C2(CCN(C4COC4)C2)OC3=O)cc1F)NC(=O)[C@@H]1CNCCCO1 (stereo partly shown) [Compound D89] | < 30 | < 30 |  | 
18 | CN1CCC2(C=Cc3ccc(-c4ccc(C[C@@H](C#N)NC(=O)[C@@H]5CNCCCO5)c(F)c4)cc32)CC1 [Compound D90] | < 30 | 75 to 100 |  | 
19 | CN1CCC2(C=Cc3cc(-c4ccc(C[C@@H](C#N)NC(=O)[C@@H]5CNCCCO5)c(F)c4)ccc32)CC1 [Compound D91] | 30 to 75 | 75 to 100 | 0.018 | 
20 | N#C[C@H](Cc1ccc(-c2ccc3c(c2)C=CC32CCN(C3COC3)CC2)cc1F)NC(=O)[C@@H]1CNCCCO1 [Compound D93] | 30 to 75 | 75 to 100 | 0.0158 | 
21 | N#C[C@H](Cc1ccc(-c2ccc3oc(=O)n(CC4COC4)c3c2)cc1F)NC(=O)[C@@H]1CNCCCO1 [Compound D94] | < 30 | < 30 |  | 
22 | N#C[C@H](Cc1ccc(-c2ccc3oc(=O)n(CC4CCO4)c3c2)cc1F)NC(=O)[C@@H]1CNCCCO1 (stereo partly shown) [Compound D95] | < 30 | 75 to 100 | 0.017 | 
23 | CN1CC(Cn2c(=O)oc3ccc(-c4ccc(C[C@@H](C#N)NC(=O)[C@@H]5CNCCCO5)c(F)c4)cc32)C1 [Compound D96] |  |  | 0.367 | 
24 | CN1CCC1Cn1c(=O)oc2ccc(-c3ccc(C[C@@H](C#N)NC(=O)[C@@H]4CNCCCO4)c(F)c3)cc21 (stereo partly shown) [Compound D97] |  |  | 0.109 | 

Row | SMILES | inhibition at 0.005 µM [1] [%] | inhibition at 0.05 µM [1] [%] | IC50 [1] [µM] | IC50 [2] [µM]
25 | Cn1c(=O)oc2ccc(-c3ccc(C[C@@H](C#N)NC(=O)[C@@H]4CNCC5(COC5)CO4)c(F)c3)cc21 [Compound D98] | < 30 | < 30 |  | 
26 | N#C[C@H](Cc1ccc(-c2ccc3oc(=O)n(C4COC4)c3c2)cc1F)NC(=O)[C@@H]1CNCCCO1 [Compound D99] | < 30 | 30 to 75 |  | 
27 | CN1CCC(n2c(=O)oc3ccc(-c4ccc(C[C@@H](C#N)NC(=O)[C@@H]5CNCCCO5)c(F)c4)cc32)C(F)(F)C1 (stereo partly shown) [Compound D100] | < 30 | 30 to 75 |  | 
28 | CN1CC2(C1)OC(=O)c1ccc(-c3ccc(C[C@@H](C#N)NC(=O)[C@@H]4CNCCCO4)c(F)c3)cc12 [Compound D102] | < 30 | 75 to 100 | 0.0131 | 
29 | CN1CC2(C1)OCc1ccc(-c3ccc(C[C@@H](C#N)NC(=O)[C@@H]4CNCCCO4)c(F)c3)cc12 [Compound D103] | 30 to 75 | 75 to 100 | 0.0122 | 
30 | CN1CCC2(CC1)OC(=O)c1ccc(-c3ccc(C[C@@H](C#N)NC(=O)[C@@H]4CNCCCO4)c(F)c3)cc12 [Compound D104] | < 30 | < 30 |  | 
31 | CN1CCC2(CC1)OCc1ccc(-c3ccc(C[C@@H](C#N)NC(=O)[C@@H]4CNCCCO4)c(F)c3)cc12 [Compound D105] | < 30 | < 30 |  | 
32 | CN1CCC2(CC1)COc1ccc(-c3ccc(C[C@@H](C#N)NC(=O)[C@@H]4CNCCCO4)c(F)c3)cc12 [Compound D108] | < 30 | 75 to 100 |  | 
33 | C[C@H]1CNC[C@@H](C(=O)N[C@H](C#N)Cc2ccc(-c3ccc4oc(=O)n(C)c4c3)cc2F)OC1 [Compound D109] | 30 to 75 | 75 to 100 | 0.0053 | 
34 | C[C@@H]1CNC[C@@H](C(=O)N[C@H](C#N)Cc2ccc(-c3ccc4oc(=O)n(C)c4c3)cc2F)OC1 [Compound D110] |  |  | 0.0043 | 
35 | N#C[C@H](Cc1ccc(-c2ccc3c(n2)CCC3=O)cc1F)NC(=O)[C@@H]1CNCCCO1 [Compound D111] | < 30 | 75 to 100 | 0.0329 | 
36 | N#C[C@H](Cc1ccc(-c2cc3c(cn2)C(=O)CC3)cc1F)NC(=O)[C@@H]1CNCCCO1 [Compound D112] | < 30 | 30 to 75 |  | 
37 | N#C[C@H](Cc1ccc(-c2cnc3c(c2)CCC3=O)cc1F)NC(=O)[C@@H]1CNCCCO1 [Compound D113] | < 30 | < 30 |  | 
38 | Cn1ccc(=O)c2ccc(-c3ccc(C[C@@H](C#N)NC(=O)[C@@H]4CNCCCO4)c(F)c3)cc21 [Compound D114] |  |  | 0.867 | 
39 | CN1CC2(Cc3cc(-c4ccc(C[C@@H](C#N)NC(=O)[C@@H]5CNCCCO5)c(F)c4)ccc3C2=O)C1 [Compound D115] |  |  | 0.0294 | 
40 | N#C[C@H](Cc1ccc(-c2ccc3c(c2)CC2(CC2)C3=O)cc1F)NC(=O)[C@@H]1CNCCCO1 [Compound D116] | < 30 | 30 to 75 |  | 
41 | CC1(C)Cc2cc(-c3ccc(C[C@@H](C#N)NC(=O)[C@@H]4CNCCCO4)c(F)c3)ccc2C1=O [Compound D117] | 30 to 75 | 75 to 100 | 0.006 | 
42 | N#C[C@H](Cc1ccc(-c2ccc3c(c2)C2(COC2)OC3=O)cc1F)NC(=O)[C@@H]1CNCCCO1 [Compound D119] |  |  | 0.0061 | 
43 | N#C[C@H](Cc1ccc(-c2ccc3c(c2)CCC3=O)[se]1)NC(=O)[C@@H]1CNCCCO1 [Compound D121] |  |  | 0.0047 | 
44 | N#C[C@H](Cc1ccc(-c2ccc3c(c2)C2CC2C3=O)cc1F)NC(=O)[C@@H]1CNCCCO1 (stereo partly shown) [Compound D122] |  |  | 0.017 | 
45 | C[C@H]1CNC[C@@H](C(=O)N[C@H](C#N)Cc2ccc(-c3ccc4c(c3)N(C)CCC4=O)cc2F)OC1 [Compound D124] |  |  |  | 0.0112
46 | CN1CCC(=O)c2ccc(-c3ccc(C[C@@H](C#N)NC(=O)[C@@H]4CNCCCO4)cc3)cc21 [Compound D125] |  |  |  | 0.0067
47 | C[C@H]1OC(=O)c2ccc(-c3ccc(C[C@@H](C#N)NC(=O)[C@@H]4CNCCCO4)[se]3)cc21 [Compound D126] |  |  |  | 0.0108
